Laboratory results as given in patent US6875582B1 (priority 1999, dated 2005).

Columns and labels:
[1] = system: WT K. pneumoniae Tim 19 (TEM-1 beta-lactamase); type: cell-based, Klebsiella pneumoniae; details: for Drug-Resistance Phenotype: WT K. pneumoniae Tim 19, TEM-1; for Resistance or sensitivity of clinical isolate: K. pneumoniae strain Tim 19 containing TEM-1 beta-lactamase
[2] = system: K. pneumoniae Tim 19 CTX^R mutants; assay: Multi-drug-resistance phenotype of CTX-selected mutants; type: cell-based, Klebsiella pneumoniae; details: CTX^R mutants (8 analyzed), MNNG continuous culture, selected with CTX 2-550 μg/ml
E. coli ATCC 11775 = type: cell-based
[3] = system: E. coli 11775 NA^R mutants; assay: Antimicrobial disk-diffusion test (antibiogram) of clones selected on nalidixic acid gradient plates; type: cell-based

With `C[C@H]1[C@H](NC(=O)/C(=N\OC(C)(C)C(=O)O)c2csc(N)n2)C(=O)N1S(=O)(=O)O` [ATM, aztreonum] the “Drug-Resistance Phenotype” value [1] was “CTX^S, CAZ^S, FOX^S, ATM^S” and the “Drug-Resistance Phenotype” value [2] was “CTX^R, CAZ^R, FOX^R, ATM^R”.
With `CC(C)(O/N=C(\C(=O)N[C@@H]1C(=O)N2C(C(=O)[O-])=C(C[n+]3ccccc3)CS[C@H]12)c1csc(N)n1)C(=O)O` [CAZ, ceftazidime] the “Resistance or sensitivity of clinical isolate” value (“Resistance or sensitivity” for short) [1] was “sensitive”, the “Drug-Resistance Phenotype” value [1] was “CTX^S, CAZ^S, FOX^S, ATM^S” and the “Drug-Resistance Phenotype” value [2] was “CTX^R, CAZ^R, FOX^R, ATM^R”.
`CO/N=C(\C(=O)N[C@@H]1C(=O)N2C(C(=O)O)=C(COC(C)=O)CS[C@H]12)c1csc(N)n1` [CTX, cefotaxime] was tested, and the “Resistance or sensitivity” value [1] was “sensitive”, the “Drug-Resistance Phenotype” value [1] was “CTX^S, CAZ^S, FOX^S, ATM^S” and the “Drug-Resistance Phenotype” value [2] was “CTX^R, CAZ^R, FOX^R, ATM^R”.
For `CCOS(C)(=O)=O` [EMS, Ethyl Methanesulfonate], the “Mutant Frequencies (NA^R phenotype)” value (E. coli ATCC 11775) was 1.2 × 10^−7 and the “Survival (%)” value (E. coli ATCC 11775) was 64%.
In the case of `CO[C@@]1(NC(=O)Cc2cccs2)C(=O)N2C(C(=O)O)=C(COC(N)=O)CS[C@@H]21` [FOX, cefoxitin], the “Resistance or sensitivity” value [1] is reported as “sensitive”, the “Drug-Resistance Phenotype” value [1] is reported as “CTX^S, CAZ^S, FOX^S, ATM^S” and the “Drug-Resistance Phenotype” value [2] is reported as “CTX^R, CAZ^R, FOX^R, ATM^R”.
In the case of `CCn1cc(C(=O)O)c(=O)c2ccc(C)nc21` [NA, nalidixic acid], the “Phenotype (nalidixic acid resistance)” value ([3]; mutant D2C2-a, EMS continuous culture, 82 generations, Gly-81→Cys) is reported as “Partially NA^R”, the “Phenotype (nalidixic acid resistance)” value ([3]; mutant D2C2-h, EMS continuous culture, 62 generations, Gly-81→Cys) is reported as “Partially NA^R” and the “Phenotype (nalidixic acid resistance)” value ([3]; mutant D2C2-l, EMS continuous culture, 62 generations, Gly-82 (GAC)→Asn) is reported as “Partially NA^R”. For the same compound, the “Phenotype (nalidixic acid resistance)” value ([3]; mutant D3NX-E5, EMS continuous culture, 135 generations, Ser-83→Leu) was “Completely NA^R”, the “Phenotype (nalidixic acid resistance)” value ([3]; mutant D3NX-E6, EMS continuous culture, 135 generations, Ser-83→Leu) was “Completely NA^R” and the “Phenotype (nalidixic acid resistance)” value ([3]; mutant D7NX-E1, EMS continuous culture, 403 generations, Ser-83→Leu) was “Completely NA^R”. For the same compound, the “Phenotype (nalidixic acid resistance)” value ([3]; mutant D7NX-E2, EMS continuous culture, 403 generations, Ser-83→Leu) was “Completely NA^R”, the “Phenotype (nalidixic acid resistance)” value ([3]; mutant NX-E09, EMS, batch culture, gyrA Asp-87→Ile) was “Partially NA^R” and the “Phenotype (nalidixic acid resistance)” value ([3]; mutant NX-E10, EMS, batch culture, gyrA Ser-83→Leu) was “Completely NA^R”. The “Phenotype (nalidixic acid resistance)” value ([3]; mutant NX-M3, MNNG, batch culture, gyrA Asp-87→Gly) was “Partially NA^R”, the “Phenotype (nalidixic acid resistance)” value ([3]; mutant NX-M5, MNNG, batch culture, gyrA Asp-87→Asn) was “Partially NA^R” and the “Phenotype (nalidixic acid resistance)” value ([3]; mutant NX-M6, MNNG, batch culture, gyrA Asp-87→Gly) was “Partially NA^R”. The “Phenotype (nalidixic acid resistance)” value ([3]; mutant NX-N6, NQO, batch culture, gyrA Ser-83→Leu) was “Completely NA^R”.
`O=[N+]([O-])c1cc[n+]([O-])c2ccccc12` [NQO, 4Nitroquinoline-lxide] was tested, and the “Mutant Frequencies (NA^R phenotype)” value (E. coli ATCC 11775) was 0.6 × 10^−8 and the “Survival (%)” value (E. coli ATCC 11775) was 77%.
With `CC1(C)S[C@@H]2[C@H](NC(=O)[C@H](N)c3ccccc3)C(=O)N2[C@H]1C(=O)O` [ampicillin] the “Resistance or sensitivity” value [1] was “resistance”.
